# Measured values published in patent US20040209799A1, “JAK/STAT pathway inhibitors and the uses thereof” (priority 2000, published 2004).
# Experiments:
# Type in all cases: cell-based
# NF-κB (p65) mRNA = experiment: northern blot, IL-1β-induced mRNA in human articular chondrocytes: NF-κB; conditions: 5 μM, 2 ng/ml rhIL-1β, 24 hours, free base or trifluoroacetic acid salt form
# Description: (§1) Frozen human articular chondrocyte cell strain HC30-0198 (described in Example 1) was thawed, and cultured in monolayer in T150 tissue culture flasks (Corning Costar, Cambridge, Mass.) as described above to 1-5 days post-confluence. Test cultures were rinsed in PBS, and preincubated for 2 hours with 10 ml of serum-free DMEM containing 5 μM DBH (synthetic), in its free base or trifluoroacetic acid salt form. An additional 10 ml of serum-free DMEM containing 5 μM DBH, 4 ng/ml recombinant human interleukin-1β (rhIL-1β; final concentration of 2 ng/ml) (R&D Systems, Minneapolis, Minn.), and 2% antibiotic solution (final concentration of 1%), were then added for 24 hours.
# (§2) Two control cultures were run in parallel: one without DBH (rhIL-1β alone), and another without DBH or rhIL-1β.
# (§3) Total RNA was fixed to the membrane using a Stratalinker® 1800 UV Crosslinker (Stratagene, La Jolla, Calif.). […]
# (§4) The blot was successively washed two times in 2×SSC/0.05% SDS (15 min/wash at room temperature), and two times in 0.1×SSC/0.1% SDS (30 minutes/wash at 65° C.). The blot was allowed to air dry, and the radioactive signal was visualized and quantified using a Fujifilm, BAS-1500 phosphorimager (Fuji, Stamford, Conn.). […]
# [1] = system: stromelysin-1 (MMP3) mRNA; experiment: northern blot, IL-1β-induced mRNA in human articular chondrocytes: stromelysin-1; conditions: 5 μM, 2 ng/ml rhIL-1β, 24 hours, free base or trifluoroacetic acid salt form
# Description: as §1, §2, §3, §4
# [2] = system: rhIL-1β-induced mRNAs in human articular chondrocytes; experiment: northern blot, rhIL-1β-induced mRNAs, comparison of DBH forms (some mRNAs, not named); conditions: 5 μM, for some mRNAs
# Description: as §1, §2, §3, §4
# [3] = system: IL-1α-induced aggrecanase activity in bovine chondrocytes; experiment: IL-1α-induced 35S-labeled proteoglycan release (aggrecanase activity) in bovine chondrocytes; conditions: Bos taurus, Chondrocyte, 1 ng/ml rhIL-1α, primary bovine articular chondrocytes
# Description: Primary bovine articular chondrocytes were isolated from the dissected articular cartilage of calf stifle joints using a thirty minute (37° C.) 1 mg/ml hyaluronidase (Boehringer Mannheim, Indianapolis, Ind.) treatment, followed by a thirty minute (37° C.) 2 mg/ml collagenase P (Boehringer Mannheim, Indianapolis, Ind.) and 2.5 mg/ml trypsin (GIBCO/BRL, Gaithersburg, Md.) treatment. Enzyme solutions were prepared in serum-free 1:1 Delbecco's modified essential medium/Ham's F-12 (DMEM/F12), and filter sterilized with a 0.22 μm Millex®-GV filter (Millipore S. A., Molsheim, France). A third, overnight digestion (0.5 mg/ml collagenase P at 37° C.) was performed in a Bellco stir flask.
# Bovine chondrocytes were recovered by addition of an equal volume of DMEM/F12 supplemented with 10% fetal bovine serum (FBS) to neutralize enzymes, filtered through a 70 μm nylon Falcon® Cell Strainer (Beckton Dickinson, Franklin Lakes, N.J.), and centrifuged at 1000×g for 10 min at room temperature. […]
# On day 28, the 0.5 ml media was removed and placed in a scintillation minivial. 4 ml of scintillation fluid was added and radioactivity in the media was quantified by scintillation counting. The cell layer was rinsed in PBS and harvested with 0.5 ml of 1× trypsin-EDTA, and quantified by scintillation counting as above. […]
# Data were determined and expressed as follows: […]
Compound,inhibition of IL-1β-induced upregulation of NF-κB (p65) mRNA (NF-κB (p65) mRNA),inhibition of IL-1β-induced upregulation of stromelysin (MMP3) mRNA [1],"inhibition of rhIL-1β-induced mRNAs, compared with the trifluoroacetic acid salt form [2]",inhibition at 5 µM [3]
"NC1=NC(=O)C(=C2CCNC(=O)c3[nH]ccc32)N1 [DBH, 4-(2-amino-4-oxo-2-imidazolin-5-ylidene)-4,5,6,7-tetrahydropyrrolo(2,3-c) azepine-8-one]",inhibit to various degrees,inhibit to various degrees,–,–
NC1=NC(=O)C(=C2CCNC(=O)c3[nH]ccc32)N1 [DBH-2FB],–,–,to a greater extent than the trifluoroacetic acid salt form of DBH,100%
